Experimental data reported in PubChem BioAssay AID256 (DTP/NCI, 2004).
Values joined by “and” are separate entries in the source; they are usually repeats but may differ in a detail not shown here. Identical values can stand only once. Inconclusive results and toxic doses are left out. How the source made its calls: active means survival T/C of 150% or more; inactive means T/C below 125% in these data.

System: CD2F1 mice, L1210 leukemia ip, survival T/C
Experiment: NCI In Vivo Anticancer Drug Screen. Data for tumor model L1210 Leukemia (intraperitoneal) in CD2F1 (CDF1) mice
Details: higher = longer survival
Summary of the method: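 In this screen, transplantable tumors were grown in mice given either the compound or its vehicle. Results were expressed as the treated measurement relative to the control measurement.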

[1] = endpoint: mean survival time, dose: 12.5 mg/kg/injection, schedule: Q01DX009 (ip), vehicle: saline with Tween-80
[2] = endpoint: mean survival time, dose: 25.0 mg/kg/injection, schedule: Q01DX009 (ip), vehicle: saline with Tween-80
[3] = endpoint: mean survival time, dose: 50.0 mg/kg/injection, schedule: Q01DX009 (ip), vehicle: saline with Tween-80
[4] = endpoint: mean survival time, dose: 100.0 mg/kg/injection, schedule: Q01DX001 (ip), vehicle: saline
[5] = endpoint: mean survival time, dose: 100.0 mg/kg/injection, schedule: Q01DX009 (ip), vehicle: saline with Tween-80
[6] = endpoint: mean survival time, dose: 200.0 mg/kg/injection, schedule: Q01DX001 (ip), vehicle: saline
[7] = endpoint: mean survival time, dose: 200.0 mg/kg/injection, schedule: Q01DX009 (ip), vehicle: saline with Tween-80
[8] = endpoint: mean survival time, dose: 400.0 mg/kg/injection, schedule: Q01DX001 (ip), vehicle: saline
[9] = endpoint: mean survival time, dose: 100.0 mg/kg/injection, schedule: Q04DX003 (ip), vehicle: saline with Tween-80
[10] = endpoint: mean survival time, dose: 200.0 mg/kg/injection, schedule: Q04DX003 (ip), vehicle: saline with Tween-80
[11] = endpoint: mean survival time, dose: 400.0 mg/kg/injection, schedule: Q04DX003 (ip), vehicle: saline with Tween-80
[12] = endpoint: mean survival time, dose: 75.0 mg/kg/injection, schedule: Q01DX001 (ip), vehicle: other
[13] = endpoint: mean survival time, dose: 150.0 mg/kg/injection, schedule: Q01DX001 (ip), vehicle: other
[14] = endpoint: mean survival time, dose: 300.0 mg/kg/injection, schedule: Q01DX001 (ip), vehicle: other

Measured: T/C

CC(=O)OC1C(CO)OC(n2ccc3c(N)ncnc32)C1O (stereo not given)
inactive: endpoint: mean survival time, dose: 5.0 mg/kg/injection, schedule: Q01DX001 (ip), vehicle: saline 104 % of control | endpoint: mean survival time, dose: 10.0 mg/kg/injection, schedule: Q01DX001 (ip), vehicle: saline 117 % of control | endpoint: mean survival time, dose: 20.0 mg/kg/injection, schedule: Q01DX001 (ip), vehicle: saline 117 % of control | endpoint: mean survival time, dose: 40.0 mg/kg/injection, schedule: Q01DX001 (ip), vehicle: saline 110 % of control

O=[N+]([O-])c1cc(S(=O)(=O)F)ccc1Cl
inactive: [1] 100 % of control | [2] 94 % of control | [3] 97 % of control and 103 % of control

Cc1c(NCO)c(=O)n(-c2ccccc2)n1C
inactive: endpoint: mean survival time, dose: 100.0 mg/kg/injection, schedule: Q01DX009 (ip), vehicle: saline 94 % of control | endpoint: mean survival time, dose: 200.0 mg/kg/injection, schedule: Q01DX009 (ip), vehicle: saline 89 % of control | endpoint: mean survival time, dose: 400.0 mg/kg/injection, schedule: Q01DX009 (ip), vehicle: saline 105 % of control

CCO/N=C(\N)c1ccccc1
inactive: [3] 106 % of control | [4] 111 % of control | [5] 98 % of control | [6] 108 % of control | [7] 100 % of control | [8] 104 % of control

O=C(O)c1c(O)cccc1O
inactive: endpoint: mean survival time, dose: 50.0 mg/kg/injection, schedule: Q01DX001 (ip), vehicle: saline 98 % of control | [4] 98 % of control | [6] 101 % of control

CO[C@H]1Nc2c(ccc(C)c2O)C(=O)N2C=C(/C=C/C(N)=O)C[C@@H]12
inactive: endpoint: mean survival time, dose: 0.1 mg/kg/injection, schedule: Q01DX015 (ip), vehicle: saline 111 % of control | endpoint: mean survival time, dose: 0.2 mg/kg/injection, schedule: Q01DX015 (ip), vehicle: saline 119 % of control | endpoint: mean survival time, dose: 0.25 mg/kg/injection, schedule: Q01DX009 (ip), vehicle: saline sonified 106 % of control | endpoint: mean survival time, dose: 0.36 mg/kg/injection, schedule: Q01DX015 (ip), vehicle: saline 120 % of control | endpoint: mean survival time, dose: 0.5 mg/kg/injection, schedule: Q01DX009 (ip), vehicle: saline sonified 104 % of control | endpoint: mean survival time, dose: 1.0 mg/kg/injection, schedule: Q01DX009 (ip), vehicle: saline sonified 91 % of control | endpoint: mean survival time, dose: 1.0 mg/kg/injection, schedule: Q04DX003 (ip), vehicle: saline with Tween-80 117 % of control | endpoint: mean survival time, dose: 1.5 mg/kg/injection, schedule: Q04DX003 (ip), vehicle: saline with Tween-80 118 % of control | endpoint: mean survival time, dose: 25.0 micrograms/kg/injection, schedule: Q01DX009 (ip), vehicle: saline with Tween-80 108 % of control | endpoint: mean survival time, dose: 50.0 micrograms/kg/injection, schedule: Q01DX009 (ip), vehicle: saline with Tween-80 117 % of control | endpoint: mean survival time, dose: 100.0 micrograms/kg/injection, schedule: Q01DX009 (ip), vehicle: saline with Tween-80 109 % of control | endpoint: mean survival time, dose: 200.0 micrograms/kg/injection, schedule: Q01DX009 (ip), vehicle: saline with Tween-80 117 % of control | endpoint: median survival time, dose: 0.01 mg/kg/injection, schedule: Q01DX005 (ip), vehicle: DMSO 102 % of control | endpoint: median survival time, dose: 0.02 mg/kg/injection, schedule: Q01DX005 (ip), vehicle: DMSO 117 % of control | endpoint: median survival time, dose: 0.04 mg/kg/injection, schedule: Q01DX005 (ip), vehicle: DMSO 118 % of control

CN1c2ccccc2N(C)c2ccccc21
inactive: [5] 94 % of control | [9] 101 % of control | [10] 98 % of control | [11] 96 % of control

COc1ccc(C2(C#N)CCCC2)cc1
inactive: endpoint: mean survival time, dose: 100.0 mg/kg/injection, schedule: Q01DX009 (ip), vehicle: saline sonified 94 % of control | [9] 97 % of control | endpoint: mean survival time, dose: 200.0 mg/kg/injection, schedule: Q01DX009 (ip), vehicle: saline sonified 102 % of control | [10] 101 % of control | endpoint: mean survival time, dose: 400.0 mg/kg/injection, schedule: Q01DX009 (ip), vehicle: saline sonified 96 % of control | [11] 95 % of control

CC([NH-])C(C)[NH-].CC([NH-])C(C)[NH-].[Cl][Co][Cl] (stereo not given)
inactive: endpoint: mean survival time, dose: 100.0 mg/kg/injection, schedule: Q04DX002 (ip), vehicle: saline 103 % of control

C=Cc1ccc(OC2OC(COC(C)=O)C(OC3OC(COC(C)=O)C(OC(C)=O)C(OC(C)=O)C3OC(C)=O)C(OC(C)=O)C2OC(C)=O)cc1 (stereo not given)
inactive: [12] 92 % of control | [13] 95 % of control | [14] 92 % of control

C[n+]1c(/C=N/NC(N)=S)ccc2ccccc21
inactive: endpoint: mean survival time, dose: 6.25 mg/kg/injection, schedule: Q01DX009 (ip), vehicle: saline with Tween-80 102 % of control | [1] 106 % of control | [2] 108 % of control | [3] 100 % of control | [5] 91 % of control | [7] 94 % of control | endpoint: median survival time, dose: 6.25 mg/kg/injection, schedule: Q01DX009 (ip), vehicle: saline with Tween-80 100 % of control | endpoint: median survival time, dose: 12.5 mg/kg/injection, schedule: Q01DX009 (ip), vehicle: saline with Tween-80 100 % of control | endpoint: median survival time, dose: 25.0 mg/kg/injection, schedule: Q01DX009 (ip), vehicle: saline with Tween-80 96 % of control | endpoint: median survival time, dose: 50.0 mg/kg/injection, schedule: Q01DX009 (ip), vehicle: saline with Tween-80 96 % of control | endpoint: median survival time, dose: 100.0 mg/kg/injection, schedule: Q01DX009 (ip), vehicle: saline with Tween-80 101 % of control

CCC(C)C#N (stereo not given)
inactive: endpoint: mean survival time, dose: 5.0 mg/kg/injection, schedule: Q01DX009 (ip), vehicle: saline with Tween-80 98 % of control | endpoint: mean survival time, dose: 5.0 mg/kg/injection, schedule: Q04DX003 (ip), vehicle: saline 97 % of control | endpoint: mean survival time, dose: 10.0 mg/kg/injection, schedule: Q01DX009 (ip), vehicle: saline with Tween-80 100 % of control | endpoint: mean survival time, dose: 10.0 mg/kg/injection, schedule: Q04DX003 (ip), vehicle: saline 103 % of control | endpoint: mean survival time, dose: 20.0 mg/kg/injection, schedule: Q01DX009 (ip), vehicle: saline with Tween-80 94 % of control | endpoint: mean survival time, dose: 20.0 mg/kg/injection, schedule: Q04DX003 (ip), vehicle: saline 103 % of control

O=P(O)(O)Cc1ccccc1-c1ccccc1
inactive: [4] 93 % of control | [6] 94 % of control | [8] 100 % of control

O=C1OC(c2ccccc2)=N/C1=C\c1cccc(O)c1
inactive: [5] 104 % of control | [7] 109 % of control | endpoint: mean survival time, dose: 400.0 mg/kg/injection, schedule: Q01DX009 (ip), vehicle: saline with Tween-80 98 % of control

CN(C)CCC(O)C(O)CCN(C)C (stereo not given)
inactive: [12] 102 % of control | [13] 102 % of control | [14] 103 % of control

CCOC(=O)C(C(C)=O)C(=O)/C=C/c1ccccc1 (stereo not given)
inactive: [9] 98 % of control | [10] 103 % of control | [11] 97 % of control

CCOC(=O)C1(C(=O)OCC)C(C)CC(O)N1C(=O)c1ccccc1[N+](=O)[O-] (stereo not given)
inactive: endpoint: mean survival time, dose: 100.0 mg/kg/injection, schedule: Q01DX001 (ip), vehicle: Klucel (hydroxypropylcellulose) (HPC) 100 % of control | endpoint: mean survival time, dose: 200.0 mg/kg/injection, schedule: Q01DX001 (ip), vehicle: Klucel (hydroxypropylcellulose) (HPC) 96 % of control | endpoint: mean survival time, dose: 400.0 mg/kg/injection, schedule: Q01DX001 (ip), vehicle: Klucel (hydroxypropylcellulose) (HPC) 104 % of control

CC(=O)OCC(Br)C(Br)COC(C)=O (stereo not given)
inactive: [9] 100 % of control | [10] 100 % of control | [11] 97 % of control

CC(=O)CCCN(CCO)CCO
inactive: [4] 103 % of control | [6] 93 % of control | [8] 101 % of control

O=C(CCl)Nc1nccs1
inactive: [1] 100 % of control | [2] 95 % of control | [3] 97 % of control | [5] 92 % of control
